Laboratory results from US20260151620A1, “IMPLANT MEDICAL DEVICES” (Case Western Reserve University, priority 2021, published 2026).

Test: In vitro drug release from drug-loaded titania nanotube arrays (TNAs) in PBS at 37° C.
Format: physicochemical
Protocol: A total of 500 μL of DEX solution was pipetted onto the nanotube surface (pipetting 100 μL for 5 times) and allowed to dry in fume hood for an hour, ensuring that the nanotube array surface was completely dry prior to each pipetting and the release studies. Then, DEX-loaded TNA samples were immersed in Eppendorf tubes containing 100 μL of PBS (1× phosphate buffered saline) and were placed in a water bath kept at 37° C. For release measurements, all 100 μL from each releasing sample tube was transferred to a 96-well plate and measured using a SpectraMax M 2 Microplate Reader. The absorption of DEX was measured at 244 nm. After each measurement, the releasing medium was fully replaced with […] of fresh PBS.

[1] = 37° C., TNAs on polyimide and foil substrates
[2] = 37° C., TNAs on polyimide and foil substrates, PBS

Compound	burst after contacting the PBS [1]	release profile [2]	release profile (37° C., ~0.5 μm-deep, 100 nm-diameter TNAs on polyimide)	relationship between nanotube diameter and release rate (nanotube diameters within the 30 nm-100 nm range)	difference in release data between the two drug loading methods (normal pipetting vs soaking)	duration of linear release [2]	duration of sustained release (TNA 2 micron long, 30 nm pore size, 37° C. (FIG. 6B))
C[C@@H]1C[C@H]2[C@@H]3CCC4=CC(=O)C=C[C@]4(C)[C@@]3(F)[C@@H](O)C[C@]2(C)[C@@]1(O)C(=O)COP(=O)(O)O [Dexamethasone, dexamethasone sodium phosphate]	no indication of a large burst	linear	linear	weak relationship	No significant difference	–	–
Oc1ccc(C=Cc2cc(O)cc(O)c2)cc1 [Resveratrol]	no indication of a large burst	linear	–	–	–	several weeks	nearly one month
